Laboratory results published in ChEMBL document CHEMBL4680243, “N-benzyl 4,4-disubstituted piperidines as a potent class of influenza H1N1 virus inhibitors showing a novel mechanism of hemagglutinin fusion peptide interaction” (Eur J Med Chem, 2020).
Calls of active or inactive are those of the source. No cut-off for these calls is given here.

Columns and labels:
Influenza A virus [1] = assay: Antiviral activity against Influenza A virus (A/PR 8/34 (H1N1)) infected in MDCK cells assessed as reduction in virus-induced cytopathic effect measured after 72 hrs by microscopic analysis; format: functional, organism-based; settings: A/Puerto Rico/8/1934(H1N1)
Influenza A virus [2] = assay: Antiviral activity against Influenza A virus (A/PR 8/34 (H1N1)) infected in MDCK cells assessed as reduction in virus-induced cytopathic effect measured after 72 hrs by MTS assay; format: functional, organism-based; settings: A/Puerto Rico/8/1934(H1N1)
[3] = Cytotoxicity against MDCK cells assessed as change in cell morphology measured after 72 hrs by microscopic analysis; format: cell-based, Canis lupus familiaris; settings: dog
[4] = Cytotoxicity against MDCK cells assessed as reduction in cell viability measured after 72 hrs by MTS assay; format: cell-based, Canis lupus familiaris; settings: dog
[5] = Selectivity index, ratio of CC50 for MDCK cells to EC50 for antiviral activity against Influenza A virus (A/Puerto Rico/8/1934(H1N1)) infected in MDCK cells; format: toxicity, cell-based; settings: dog, read-out: Ratio CC50/EC50
Influenza A virus (H1N1) [6] = assay: Antiviral activity against Influenza A virus (H1N1) A/Virginia/ATCC3/2009 infected in MDCK cells assessed as reduction in virus-induced cytopathic effect measured after 72 hrs by microscopic analysis; format: functional, organism-based
Influenza A virus (H1N1) [7] = assay: Antiviral activity against Influenza A virus (H1N1) A/Virginia/ATCC3/2009 infected in MDCK cells assessed as reduction in virus-induced cytopathic effect measured after 72 hrs by MTS assay; format: functional, organism-based
Influenza A virus H3N2 [8] = assay: Antiviral activity against Influenza A virus H3N2 A/HK/7/87 infected in MDCK cells assessed as reduction in virus induced cytopathic effect after 72 hrs by microscopy based method; format: functional, organism-based
Influenza A virus H3N2 [9] = assay: Antiviral activity against Influenza A virus H3N2 A/HK/7/87 infected in MDCK cells assessed as reduction in virus induced cytopathic effect after 72 hrs by MTS assay; format: functional, organism-based
Influenza B virus [10] = assay: Antiviral activity against Influenza B virus B/HK/5/72 infected in MDCK cells assessed as reduction in virus induced cytopathic effect after 72 hrs by microscopy based method; format: functional, organism-based
Influenza B virus [11] = assay: Antiviral activity against Influenza B virus B/HK/5/72 infected in MDCK cells assessed as reduction in virus induced cytopathic effect after 72 hrs by MTS assay; format: functional, organism-based
Influenza A virus [12] = assay: Antiviral activity against Influenza A virus (A/PR 8/34 (H1N1)) infected in human Calu-3 cells assessed as reduction in virus-induced cytopathic effect measured after 72 hrs by microscopic analysis; format: functional, organism-based; settings: A/Puerto Rico/8/1934(H1N1), Calu-3, 72 h
Influenza A virus [13] = assay: Antiviral activity against Influenza A virus (A/PR 8/34 (H1N1)) infected in human Calu-3 cells assessed as reduction in virus-induced cytopathic effect measured after 72 hrs by MTS assay; format: functional, organism-based; settings: A/Puerto Rico/8/1934(H1N1), Calu-3, 72 h
[14] = Cytotoxicity against HELF cells; format: cell-based; settings: human
[15] = Cytotoxicity against human HeLa cells; format: cell-based
[16] = Selectivity index, ratio of MCC for HELF cells to EC50 for antiviral activity against Influenza A virus (A/PR 8/34 (H1N1)) infected in human Calu-3 cells; format: toxicity, cell-based; settings: HELF cells (MCC) and Calu-3 cells (EC50), read-out: Selectivity Index
[17] = Selectivity index, ratio of MCC for human HeLa cells to EC50 for antiviral activity against Influenza A virus (A/PR 8/34 (H1N1)) infected in human Calu-3 cells; format: toxicity, cell-based; settings: HeLa cells (MCC) and Calu-3 cells (EC50), read-out: Selectivity Index
Influenza A virus [18] = assay: Antiviral activity against Influenza A virus (A/PR 8/34 (H1N1)) infected in MDCK cells assessed as reduction in viral RNA synthesis at 50 uM treated at 1 hr post-infection by RT-qPCR analysis; format: functional, organism-based; settings: A/Puerto Rico/8/1934(H1N1)
Influenza A virus [19] = assay: Antiviral activity against Influenza A virus (A/PR 8/34 (H1N1)) clone 1 infected in MDCK cells assessed as reduction in virus-induced cytopathic effect measured after 72 hrs by microscopic analysis; format: functional, organism-based; settings: A/Puerto Rico/8/1934(H1N1)
Influenza A virus [20] = assay: Antiviral activity against Influenza A virus (A/PR 8/34 (H1N1)) clone 1 infected in MDCK cells assessed as reduction in virus-induced cytopathic effect measured after 72 hrs by MTS assay; format: functional, organism-based; settings: A/Puerto Rico/8/1934(H1N1)
Influenza A virus [21] = assay: Antiviral activity against Influenza A virus (A/PR 8/34 (H1N1)) clone 2 infected in MDCK cells assessed as reduction in virus-induced cytopathic effect measured after 72 hrs by microscopic analysis; format: functional, organism-based; settings: A/Puerto Rico/8/1934(H1N1)
Influenza A virus [22] = assay: Antiviral activity against Influenza A virus (A/PR 8/34 (H1N1)) clone 2 infected in MDCK cells assessed as reduction in virus-induced cytopathic effect measured after 72 hrs by MTS assay; format: functional, organism-based; settings: A/Puerto Rico/8/1934(H1N1)
[23] = molecular target: Hemagglutinin (Influenza A virus (A/Puerto Rico/8/1934(H1N1))) (UniProt P03452); assay: Inhibition of Influenza A virus (A/PR 8/34 (H1N1)) hemagglutinin transfected in human HeLa cells assessed as reduction in low pH-indued polykaryon formation at 100 uM preincubated for 15 mins followed by pH 5.2 buffer addition and measured after 5 mins by giemsa staining based microscopic analysis; format: cell-based; settings: time 20.0 min
Chain of Hemagglutinin (Influenza A virus (A/Puerto Rico/8/1934(H1N1))) (P03452 whole entry): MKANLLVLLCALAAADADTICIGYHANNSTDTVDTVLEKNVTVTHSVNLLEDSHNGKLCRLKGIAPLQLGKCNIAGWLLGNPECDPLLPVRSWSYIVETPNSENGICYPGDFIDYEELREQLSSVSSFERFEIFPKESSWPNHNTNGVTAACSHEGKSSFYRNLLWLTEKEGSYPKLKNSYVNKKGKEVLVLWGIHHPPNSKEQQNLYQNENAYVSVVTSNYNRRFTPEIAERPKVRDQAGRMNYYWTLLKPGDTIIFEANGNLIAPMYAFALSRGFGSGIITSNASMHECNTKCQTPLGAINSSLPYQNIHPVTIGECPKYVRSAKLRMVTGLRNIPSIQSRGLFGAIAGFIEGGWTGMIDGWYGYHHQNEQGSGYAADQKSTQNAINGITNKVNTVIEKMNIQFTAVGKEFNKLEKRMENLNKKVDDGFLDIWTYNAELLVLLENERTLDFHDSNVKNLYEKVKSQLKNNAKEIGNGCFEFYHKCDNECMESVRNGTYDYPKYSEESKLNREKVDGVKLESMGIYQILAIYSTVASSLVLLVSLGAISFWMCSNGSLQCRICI

[24] = molecular target: Hemagglutinin (Influenza A virus (A/Puerto Rico/8/1934(H1N1))) (UniProt P03452); assay: Inhibition of Influenza A virus (A/PR 8/34 (H1N1)) hemagglutinin transfected in human HeLa cells assessed as reduction in low pH-indued polykaryon formation preincubated for 15 mins followed by pH 5.2 buffer addition and measured after 5 mins by giemsa staining based microscopic analysis; format: cell-based; settings: time 20.0 min
[25] = molecular target: Hemagglutinin (Influenza A virus (A/Puerto Rico/8/1934(H1N1))) (UniProt P03452); assay: Inhibition of Influenza A virus (A/PR 8/34 (H1N1)) hemagglutinin infected in MDCK cells assessed as reduction in virus binding to cell surface; format: cell-based
Trypsin (Homo sapiens) [26] = molecular target: T1, Trypsin (Homo sapiens) (UniProt P07477+P07478+P35030); assay: Inhibition of human trypsin using Boc-Gln-Ala-Arg-AMC as substrate preincubated for 15 mins followed by substrate addition and measured for 60 mins by fluorescence assay; format: protein assay; settings: time 75.0 min
[27] = molecular target: T2, Transmembrane protease serine 11D (Homo sapiens) (UniProt O60235); assay: Inhibition of recombinant human N-terminal His-tagged HAT (Ala42 to Ile418 residues) expressed in mouse NSO cells using Boc-Gln-Ala-Arg-AMC as substrate preincubated for 15 mins followed by substrate addition and measured for 60 mins by fluorescence assay; settings: time 75.0 min
T2 sequence (whole entry): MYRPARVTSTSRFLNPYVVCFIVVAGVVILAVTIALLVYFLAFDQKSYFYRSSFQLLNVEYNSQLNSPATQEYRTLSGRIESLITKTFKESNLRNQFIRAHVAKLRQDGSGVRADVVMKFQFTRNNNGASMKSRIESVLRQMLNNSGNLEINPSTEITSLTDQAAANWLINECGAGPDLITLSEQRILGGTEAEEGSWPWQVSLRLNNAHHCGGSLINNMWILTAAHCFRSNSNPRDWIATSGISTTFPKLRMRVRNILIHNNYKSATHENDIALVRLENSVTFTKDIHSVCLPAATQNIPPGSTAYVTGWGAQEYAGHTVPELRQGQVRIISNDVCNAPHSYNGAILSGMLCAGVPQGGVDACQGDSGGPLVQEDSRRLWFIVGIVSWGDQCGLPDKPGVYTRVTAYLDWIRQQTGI

[28] = molecular target: Cathepsin B (Homo sapiens) (UniProt P07858); assay: Inhibition of human liver cathepsin B using Z-Phe-Arg-AMC as substrate preincubated for 15 mins followed by substrate addition and measured for 60 mins by fluorescence assay; settings: time 75.0 min
[29] = molecular target: T3, Cathepsin F (Homo sapiens) (UniProt Q9UBX1); assay: Inhibition of recombinant human cathepsin F expressed in baculovirus infected insect cells using Z-Phe-Arg-AMC as substrate preincubated for 15 mins followed by substrate addition and measured for 60 mins by fluorescence assay; settings: time 75.0 min
T3 sequence (whole entry): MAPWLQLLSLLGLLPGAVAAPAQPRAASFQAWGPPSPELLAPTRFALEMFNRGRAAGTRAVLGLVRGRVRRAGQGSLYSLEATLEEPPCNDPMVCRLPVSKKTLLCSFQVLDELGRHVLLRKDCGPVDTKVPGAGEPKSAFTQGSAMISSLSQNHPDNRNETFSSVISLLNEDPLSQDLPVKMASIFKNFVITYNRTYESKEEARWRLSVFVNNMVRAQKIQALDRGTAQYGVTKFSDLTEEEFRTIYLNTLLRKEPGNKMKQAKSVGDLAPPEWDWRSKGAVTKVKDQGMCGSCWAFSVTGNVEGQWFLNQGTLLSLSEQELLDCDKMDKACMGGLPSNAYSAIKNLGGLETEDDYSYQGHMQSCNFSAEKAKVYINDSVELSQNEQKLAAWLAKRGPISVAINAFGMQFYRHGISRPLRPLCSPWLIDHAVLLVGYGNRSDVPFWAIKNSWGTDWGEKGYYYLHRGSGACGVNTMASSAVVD

[30] = molecular target: Procathepsin L (Homo sapiens) (UniProt P07711); assay: Inhibition of human liver cathepsin L using Z-Phe-Arg-AMC as substrate preincubated for 15 mins followed by substrate addition and measured for 60 mins by fluorescence assay; settings: time 75.0 min
Chain of Procathepsin L (Homo sapiens) (P07711 114-333 limits assumed): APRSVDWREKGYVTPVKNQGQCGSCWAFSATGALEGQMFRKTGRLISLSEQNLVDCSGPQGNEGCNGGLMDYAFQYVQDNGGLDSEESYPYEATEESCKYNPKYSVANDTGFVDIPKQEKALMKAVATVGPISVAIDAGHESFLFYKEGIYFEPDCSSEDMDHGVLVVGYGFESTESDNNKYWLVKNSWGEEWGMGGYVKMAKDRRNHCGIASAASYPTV

Trypsin (Homo sapiens) [31] = molecular target: T1, Trypsin (Homo sapiens); assay: Inhibition of human trypsin at 1 uM using Boc-Gln-Ala-Arg-AMC as substrate preincubated for 15 mins followed by substrate addition and measured for 60 mins by fluorescence assay relative to control; format: protein assay; settings: time 75.0 min
[32] = molecular target: T2, Transmembrane protease serine 11D (Homo sapiens); assay: Inhibition of recombinant human N-terminal His-tagged HAT (Ala42 to Ile418 residues) expressed in mouse NSO cells at 1 uM using Boc-Gln-Ala-Arg-AMC as substrate preincubated for 15 mins followed by substrate addition and measured for 60 mins by fluorescence assay relative to control; settings: time 75.0 min

SMILES	EC50 (Influenza A virus [1])	EC50 (Influenza A virus [2])	MCC at 72 h [3]	CC50 at 72 h [4]	selectivity ratio [5]	EC50 (Influenza A virus [19])	EC50 (Influenza A virus [20])	inhibition (Trypsin (Homo sapiens) [26])	inhibition [27]	inhibition [28]	inhibition [29]	inhibition [30]	also measured
COC(=O)C[C@H](NC(=O)OC(C)(C)C)C(=O)N(Cc1ccc(F)cc1)C1(C(=O)NCc2ccccc2)CCN(Cc2ccccc2)CC1	1.9 µM	2.7 µM	> 100 µM	> 100 µM	18	> 100 µM	> 100 µM	inactive	inactive	inactive	inactive	inactive	Activity (Influenza A virus (H1N1) [6]): inactive; Activity (Influenza A virus (H1N1) [7]): inactive; Activity (Influenza A virus H3N2 [8]): inactive; Activity (Influenza A virus H3N2 [9]): inactive; Activity (Influenza B virus [10]): inactive; Activity (Influenza B virus [11]): inactive; EC50 (Influenza A virus [12]): 1.8 µM; EC50 (Influenza A virus [13]): 3 µM; MCC [14]: 100 µM; MCC [15]: 100 µM; selectivity ratio [16]: ≥ 30; selectivity ratio [17]: ≥ 30; Activity (Influenza A virus [18]): Active; EC50 (Influenza A virus [21]): > 100 µM; EC50 (Influenza A virus [22]): > 100 µM; inhibition [23]: 100%; inhibition [24]: Dose-dependent effect; inhibition [25]: inactive
NC(=O)c1ncn([C@@H]2O[C@H](CO)[C@@H](O)[C@H]2O)n1 [RIBAVIRIN]	22 µM	31 µM	100 µM	58 µM		11 µM	20 µM						
COC(=O)C[C@H](NC(=O)OCc1ccccc1)C(=O)N(C1CC1)C1(C(=O)NCc2ccccc2)CCN(Cc2ccccc2)CC1	2 µM	1.8 µM	20 µM	8.1 µM	40			inactive	inactive	inactive	inactive	inactive	
CC(C)(C)OC(=O)N[C@@H](CC(=O)O)C(=O)N(Cc1ccc(F)cc1)C1(C(=O)NCc2ccccc2)CCNCC1	> 100 µM	> 100 µM	79 µM	49 µM				inactive	inactive	inactive	inactive	inactive	
CN(C)C(=O)COC(=O)Cc1ccc(OC(=O)c2ccc(NC(=N)N)cc2)cc1													inhibition (Trypsin (Homo sapiens) [31]): 90%; inhibition [32]: 90%
